The subject of series [1] is A875 (human melanoma cell line). Kind of series: MTT in vitro cytotoxicity assay, A875. The series is classed as cell-based. To be noted: for IC50: A875, Table 3, MTT, mean ± S.D.; for inhibition at 100 µM: A875, at 100 µM, read-out: Cell growth inhibition (%) A875. As for the experimental part: (§1) The lead molecules A2 and all newly prepared diarylamine derivatives B1-13 and C1-11 were evaluated for their in vitro cytotoxic effects against SGC-7901, A875, HepG2 and MARC145 cell lines by the classical MTT [3-(4,5-dimethylthiazol-2-yl)-2,5-diphenyl tetrazolium bromide] assay ([Alley et al., 1988]; [Ke et al., 2012]; [Shi et al., 2012]; [Yu et al., 2015]; [Ke et al., 2019]; [Xu et al., 2019]; [Huang et al., 2021]) using 5-FU (5-Fluorouracil) as a control.
(§2) The cytotoxicity of target compounds was determined with MTT assay ([Alley et al., 1988]; [Ke et al., 2012]; [Shi et al., 2012]; [Yu et al., 2015]; [Ke et al., 2019]; [Xu et al., 2019]; [Huang et al., 2021]). SGC-7901, A875, HepG2 and MARC145 cell lines were obtained from Hubei Biopesticide Engineering Research Centre. All data of the experiment were analyzed with SPSS software, and all assay were performed in triplicate on three independent experiments, and measurement data were expressed as the mean ± S.D.
(§3) The in vitro cytotoxicity of the synthesized compounds against different cell lines (SGC-7901, A875, HepG2 and MARC145) was measured with MTT assay. All the data of the experiment were analyzed with SPSS software, and the 50% inhibitory concentrations (IC50) of each compound for the different cell lines were determined. A control was run for each test, and all assays were performed in triplicate on three independent experiments, and measurement data were expressed as the mean ± S.D.

Series [2] deals with SGC-7901, A875, HepG2 and MARC145 cell lines. Kind of series: MTT in vitro cytotoxicity assay, statements over the whole cell panel. The series is classed as cell-based. To be noted: for cytotoxic effect / inhibition activity in words: IC50-based judgement, compared with 5-FU; for inhibition activity in preliminary screening, in words: at 100 µM, inhibition rate higher than control 5-FU. As for the experimental part:
as §1, §2, §3

For series [3], the system named is A875 cells. Kind of series: Annexin V-FITC/PI dual staining flow cytometry. The series is classed as cell-based, human. To be noted: for apoptotic rate: 24 h, 2×IC50 concentration, FITC(+)PI(−); for apoptosis induction, in words: 24 h treatment. As for the experimental part: Apoptosis induction is one of the important modes of action for antitumor drugs.
Quantitative analysis of apoptotic and necrotic cell death induced by potential molecules was investigated using Annexin V-FITC/PI dual staining assay ([Yu et al., 2015]; [Huang et al., 2021]).
Quantitative analysis of apoptotic and necrotic cell death induced by the test compounds was performed by Annexin V-FITC apoptosis detection kit according to the manufacturer’s instructions (Abcam). Briefly, 2×10^5 A875 cells were seeded in 6-well plates and grown overnight. […] Cells treated with 0.1% DMSO were served as solvent control. Following treatment cells were harvested, washed twice with ice-cold PBS and resuspended in binding buffer. Then the cells were stained by adding 5 µl of Annexin V-FITC and 5 µl of propidium iodide, sit for 5 min at room temperature in the dark and analyzed by flow cytometry (Beckman coulter FC500).

Series [4] deals with AKT3 (Homo sapiens, UniProt Q9Y243). Kind of series: ADP-GLO kinase inhibitory assay, AKT3. The series is classed as biochemical. As for the experimental part: (§4) Based on the aforementioned results for the potential mechanism of action, the kinase inhibitory profile of compounds C6 and C11 were screened at two dose concentration of 10 and 1 µM over a panel of 15 kinases, and the kinase inhibitory activities are listed in supporting information (Supplementary Table S1).
(§5) The kinase inhibitory profile of compounds C6 and C11 were screened at two dose concentration of 10 and 1 µM over a panel of 15 kinases, and each assay was repeated twice. All the inhibitory assays were carried out through kinase profiling services provided by HY Biotech (Chinese), in which ADP-GLO kinase assays were used.
(§6) The kinase inhibitory profile of compounds C6 and C11 were screened at two dose concentration of 10 µM and 1 µM over a panel of 15 kinases, and each assay was repeated twice. All the inhibitory assays were carried out through kinase profiling services provided by HY Biotech (Chinese), in which ADP-GLO kinase assays were used.

For series [5], the system named is AURORA. Kind of series: ADP-GLO kinase inhibitory assay, AURORA. The series is classed as biochemical. As for the experimental part: as §4, §5, §6
The target in series [6] is T1, PDK1 (Homo sapiens, UniProt O15530).
T1 sequence (O15530 1-556): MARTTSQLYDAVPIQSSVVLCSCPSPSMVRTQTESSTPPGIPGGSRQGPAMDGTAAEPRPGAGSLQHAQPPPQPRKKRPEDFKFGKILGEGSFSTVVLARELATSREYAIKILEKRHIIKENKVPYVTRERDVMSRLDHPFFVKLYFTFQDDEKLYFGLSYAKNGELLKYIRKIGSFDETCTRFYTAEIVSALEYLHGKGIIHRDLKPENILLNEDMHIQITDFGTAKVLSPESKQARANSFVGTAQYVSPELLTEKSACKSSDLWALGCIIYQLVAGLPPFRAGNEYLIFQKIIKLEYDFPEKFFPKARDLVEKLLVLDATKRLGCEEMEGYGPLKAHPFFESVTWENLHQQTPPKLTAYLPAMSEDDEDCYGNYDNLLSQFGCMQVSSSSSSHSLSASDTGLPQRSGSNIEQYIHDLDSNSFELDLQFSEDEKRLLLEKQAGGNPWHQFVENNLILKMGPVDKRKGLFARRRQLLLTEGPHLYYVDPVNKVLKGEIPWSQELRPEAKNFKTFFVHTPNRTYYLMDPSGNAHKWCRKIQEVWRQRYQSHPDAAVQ
Nature of the series: ADP-GLO kinase inhibitory assay, PDK1. The series is classed as biochemical. As for the experimental part:
as §4, §5, §6
On the technique in general: ADP-Glo first removes unused ATP, then detects ADP through luciferase.

The target in series [7] is RIPK3 (Homo sapiens, UniProt Q9Y572). Nature of the series: ADP-GLO kinase inhibitory assay, RIPK3. The series is classed as biochemical. As for the experimental part:
as §4, §5, §6

For series [8], the target named is PIM1 (Homo sapiens, UniProt P11309). Kind of series: ADP-GLO kinase inhibitory assay, PIM1. The series is classed as biochemical. As for the experimental part:
as §4, §5, §6

Series [9] concerns the target CAMK2 alpha (Homo sapiens, UniProt Q9UQM7). Nature of the series: ADP-GLO kinase inhibitory assay, CAMK2 alpha. The series is classed as biochemical. As for the experimental part: as §4, §5, §6

One may read the IC50 as the point on the concentration scale where inhibition reaches its midpoint. As usually defined, the inhibition is the relative decrease from the control value, in per cent.

Each structure is given as a SMILES string. Entries after “also recorded” stand apart in the source; their conditions may differ.

RIPK3, sequence (Q9Y572 whole entry, species assumed): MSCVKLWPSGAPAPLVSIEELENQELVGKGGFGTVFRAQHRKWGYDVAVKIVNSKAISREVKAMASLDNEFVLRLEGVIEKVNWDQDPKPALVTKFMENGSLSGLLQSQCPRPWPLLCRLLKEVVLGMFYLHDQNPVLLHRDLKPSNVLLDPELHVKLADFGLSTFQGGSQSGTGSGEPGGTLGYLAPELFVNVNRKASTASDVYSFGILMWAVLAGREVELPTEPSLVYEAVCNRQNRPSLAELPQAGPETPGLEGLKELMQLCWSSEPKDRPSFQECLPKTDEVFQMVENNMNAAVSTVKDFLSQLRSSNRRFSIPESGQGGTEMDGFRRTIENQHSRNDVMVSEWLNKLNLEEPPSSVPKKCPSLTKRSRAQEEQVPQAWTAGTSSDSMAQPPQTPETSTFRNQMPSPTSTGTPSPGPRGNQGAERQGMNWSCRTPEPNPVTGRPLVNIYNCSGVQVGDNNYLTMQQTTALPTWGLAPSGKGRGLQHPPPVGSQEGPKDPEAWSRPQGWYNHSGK
CAMK2 alpha, sequence (Q9UQM7 whole entry): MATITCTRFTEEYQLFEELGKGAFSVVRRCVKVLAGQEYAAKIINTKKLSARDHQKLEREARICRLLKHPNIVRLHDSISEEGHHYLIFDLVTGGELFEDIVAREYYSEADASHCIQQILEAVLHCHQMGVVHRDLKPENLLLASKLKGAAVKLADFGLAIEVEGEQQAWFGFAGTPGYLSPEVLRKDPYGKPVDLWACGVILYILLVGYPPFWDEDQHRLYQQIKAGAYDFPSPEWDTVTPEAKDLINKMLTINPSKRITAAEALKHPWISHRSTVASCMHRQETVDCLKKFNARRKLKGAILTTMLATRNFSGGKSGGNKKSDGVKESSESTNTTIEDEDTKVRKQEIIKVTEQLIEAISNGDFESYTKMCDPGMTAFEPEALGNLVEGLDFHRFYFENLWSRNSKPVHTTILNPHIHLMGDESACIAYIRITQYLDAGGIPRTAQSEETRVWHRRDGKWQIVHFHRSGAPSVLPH
AKT3, sequence (Q9Y243 whole entry, species assumed): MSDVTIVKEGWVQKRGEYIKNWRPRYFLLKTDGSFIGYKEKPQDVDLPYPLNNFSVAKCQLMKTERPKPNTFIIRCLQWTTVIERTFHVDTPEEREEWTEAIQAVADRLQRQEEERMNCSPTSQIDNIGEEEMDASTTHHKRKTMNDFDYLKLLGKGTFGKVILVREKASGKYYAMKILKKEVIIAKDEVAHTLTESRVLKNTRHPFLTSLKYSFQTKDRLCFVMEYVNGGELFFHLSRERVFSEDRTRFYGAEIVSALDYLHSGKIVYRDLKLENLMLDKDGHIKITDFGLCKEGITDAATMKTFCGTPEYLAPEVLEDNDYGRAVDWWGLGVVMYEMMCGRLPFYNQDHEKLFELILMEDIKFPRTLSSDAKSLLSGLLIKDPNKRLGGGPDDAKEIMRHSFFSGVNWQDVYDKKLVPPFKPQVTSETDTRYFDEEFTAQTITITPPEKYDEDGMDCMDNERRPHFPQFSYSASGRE
PIM1, sequence (P11309 whole entry, species assumed): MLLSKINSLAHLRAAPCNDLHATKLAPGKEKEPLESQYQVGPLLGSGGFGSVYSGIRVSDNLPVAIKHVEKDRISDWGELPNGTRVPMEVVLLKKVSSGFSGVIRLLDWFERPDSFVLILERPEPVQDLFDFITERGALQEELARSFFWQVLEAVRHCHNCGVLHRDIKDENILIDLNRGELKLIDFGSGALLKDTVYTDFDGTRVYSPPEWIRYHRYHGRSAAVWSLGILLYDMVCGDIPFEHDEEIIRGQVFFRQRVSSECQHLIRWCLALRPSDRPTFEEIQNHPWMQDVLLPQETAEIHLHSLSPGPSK

In the case of `O=C(Nc1cccc(C(F)(F)F)c1)c1cccnc1Nc1cccc(C(F)(F)F)c1` [C6, N-(3-(Trifluoromethyl)phenyl)-2-((3-(trifluoromethyl)phenyl)amino)nicotinamide], the IC50 is 12.8 ± 1.99 µM in series [1] and 5.53 to 12.8 µM in series [2] (SGC-7901, A875, HepG2, MARC145, read-out: IC50 values, span over the tested cell lines). Besides, in series [1], the inhibition at 100 µM is 91.5 ± 2.9%. Also, the “cytotoxic effect / inhibition activity in words” value in series [2] was “good cytotoxic effect; also recorded: higher inhibition activities compared to the control 5-FU”. The “dose-response analysis of cell growth inhibition, in words” value in series [2] (SGC-7901, A875, HepG2, MARC145) was “significant concentration dependence”. Moreover, the “inhibition activity in preliminary screening, in words” value in series [2] was “good inhibition activity”. Besides, the apoptotic rate in series [3] is listed as 12%. The “apoptosis induction, in words” value in series [3] is recorded as “induced apoptotic changes”. Also, the inhibition at 1 µM in [4] is 16.1%; in [6] it was 10.3%; in series [7] it was -1.37%; in series [8], 12.8%; in series [9] it was 5.12%. Moreover, the inhibition at 10 µM is -2.65% in [4]; 10.1% in series [6]; 16.8% in series [7]; 15.8% in series [8]; 37.8% in [9]. Besides, the entries for the “Inhibition activity (%) AURORA” value in series [5] (1 µM) and in series [5] (10 µM) were 4.35% and 7.74%, respectively.
In the case of `O=C(Nc1ccc(Cl)nc1)c1cccnc1Nc1cccc(C(F)(F)F)c1` [C11, N-(6-Chloropyridin-3-yl)-2-((3-(trifluoromethyl)phenyl)amino)nicotinamide], in series [1], the IC50 was 12.3 ± 4.16 µM. In addition, the inhibition at 100 µM in series [1] came out at 90.5 ± 3.7%. Also, in series [2], the “cytotoxic effect / inhibition activity in words” value is “good cytotoxic effect; also recorded: higher inhibition activities compared to the control 5-FU”. Moreover, in [2] (SGC-7901, A875, HepG2, MARC145), the “dose-response analysis of cell growth inhibition, in words” value is on record as “significant concentration dependence”. For the same molecule, the “inhibition activity in preliminary screening, in words” value in series [2] was “good inhibition activity”. The same molecule came in with an apoptotic rate in series [3] of 27%. The “apoptosis induction, in words” value in series [3] is “induced apoptotic changes”. Besides, the inhibition at 1 µM in series [4] was 20.1%; in series [6], 20.3%; in [7], 2.34%; in [8] it was 23.1%; in series [9], 5.65%. Further, the inhibition at 10 µM in series [4] is -0.49%; in series [6], 10.9%; in [7], 10.4%; in series [8] it was 10.3%; in series [9], -1.53%. Further, the “Inhibition activity (%) AURORA” value in [5] (1 µM) is given as 9.65%; in series [5] (10 µM), 12.58%.

Values taken from article PMC9315260, “Diarylamine-Guided Carboxamide Derivatives: Synthesis, Biological Evaluation, and Potential Mechanism of Action” (Frontiers in Chemistry, 2022).
